Data on four compounds can be found in patent US7833531B2, “Method for treating insulin sensitivity by long-acting GLP-1 receptor mimetibody agonists” (Centocor, Inc., priority 2006, dated 2010).

In one series the test system is db/db mice. The series can be described thus: Blood glucose lowering in db/db mice. The conditions noted are these: six week old db/db mice fasted two hours, intravenous; 0.5-4 hours post-dosing; MMB dose 100-fold lower than GLP-1 peptide dose. It counts as in vivo. The protocol: GLP-1 MMB Lowers Glucose Level in db/db Mice. […] Blood glucose was monitored 0.5, 1, 2, 3, and 4 hours post-dosing.

The subject of another series is diabetic rats. The conditions noted are these: cited from earlier work.
For series [1] the following is noted: cited from earlier work.
The conditions of series [2]: cited from earlier work. The source holds these as a separate data set.
The next series has as its target T1, GLP-1R (Rattus norvegicus, UniProt P32301).
T1 construct: endogenous in cells; host or cells: Rinm cells
T1 sequence (P32301 22-463): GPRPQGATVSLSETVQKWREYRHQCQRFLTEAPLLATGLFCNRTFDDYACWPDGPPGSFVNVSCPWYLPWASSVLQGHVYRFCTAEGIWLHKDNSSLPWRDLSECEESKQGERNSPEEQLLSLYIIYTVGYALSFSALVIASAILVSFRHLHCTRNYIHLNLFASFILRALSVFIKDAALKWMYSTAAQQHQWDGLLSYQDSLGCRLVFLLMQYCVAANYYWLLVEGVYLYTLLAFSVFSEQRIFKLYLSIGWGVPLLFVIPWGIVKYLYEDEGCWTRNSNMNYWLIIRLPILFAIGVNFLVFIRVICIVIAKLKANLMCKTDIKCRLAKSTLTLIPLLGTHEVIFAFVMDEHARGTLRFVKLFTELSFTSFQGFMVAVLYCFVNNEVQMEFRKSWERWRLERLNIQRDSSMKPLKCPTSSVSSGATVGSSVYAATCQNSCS
The series can be described thus: cAMP assay in Rinm cells. As to conditions: similar experiment. It counts as cell-based. The protocol: cAMP Assay. GLP-1 binds to its receptor, a G-protein coupled receptor, resulting in a dose-dependent increase in the signaling molecule, 3′,5′-cyclic AMP (cAMP). cAMP can be measured with an in vitro assay in cells expressing the GLP-1R (Applied Biosystems). […] The cells were lysed, and the amount of cAMP was determined using a competitive assay that employs an alkaline-phosphatase labeled cAMP conjugate and a chemiluminescent substrate (Tropix® CDPD®).
A general note: Cyclic AMP is a second messenger, typically raised through Gs and lowered through Gi signalling.

Where two headings read alike, the source gives them in different places. Where no end group is shown, it is not given here.

In the case of `CC[C@H](C)[C@H](NC(=O)[C@H](Cc1ccccc1)NC(=O)[C@H](CCC(=O)O)NC(=O)[C@H](CCCCN)NC(=O)[C@H](C)NC(=O)[C@H](C)NC(=O)[C@H](CCC(N)=O)NC(=O)CNC(=O)[C@H](CCC(=O)O)NC(=O)[C@H](CC(C)C)NC(=O)[C@H](Cc1ccc(O)cc1)NC(=O)[C@H](CO)NC(=O)[C@H](CO)NC(=O)[C@@H](NC(=O)[C@H](CC(=O)O)NC(=O)[C@H](CO)NC(=O)[C@@H](NC(=O)[C@H](Cc1ccccc1)NC(=O)[C@@H](NC(=O)CNC(=O)[C@H](CCC(=O)O)NC(=O)[C@H](C)NC(=O)[C@@H](N)Cc1c[nH]cn1)[C@@H](C)O)[C@@H](C)O)C(C)C)C(=O)N[C@@H](C)C(=O)N[C@@H](Cc1c[nH]c2ccccc12)C(=O)N[C@@H](CC(C)C)C(=O)N[C@H](C(=O)N[C@@H](CCCCN)C(=O)NCC(=O)N[C@@H](CCCNC(=N)N)C(N)=O)C(C)C` [GLP-1 peptide], the blood glucose entry with db/db mice is given as “lowered blood glucose at 30 minutes, but by 60 minutes, the blood glucose began to increase again”. Also, the insulin sensitivity entry is given as “not acute” with diabetic rats (acute administration) and “significant improvement in insulin sensitivity” in the series on diabetic rats (chronic administration).
“Byetta™: recently marketed GLP-1 analogue developed by Amylin and Eli Lilly, first identified in the saliva of the gila monster lizard”: in series [1], the “in vivo half life” value was “less than 30 minutes”. The “sustained decrease in body weight” value in series [2] (during the course of the study) is listed as 5-10 pounds. The HbAlc levels lowered result in series [2] (following 82 weeks of treatment) is recorded as “approximately 1%”.
Regarding “GLP-1 (A2G) MMB in IgG4 scaffold: mimetibody with DPP-IV resistant GLP-1 variant GLP-1 (A2G) in IgG4 scaffold (HGEGTFTSDVSSYLEGQAAKEFIAWLVKGRG; also: in IgG4 mimetibody scaffold)”, the “cAMP levels in Rinm cells relative to wt GLP-1 MMB in IgG4 scaffold” value with GLP-1R is reported as “significantly higher level than wt GLP-1 MMB in IgG4 scaffold”.
With “GLP-1 (A2S) MMB in IgG4 scaffold: mimetibody with DPP-IV resistant GLP-1 variant GLP-1 (A2S) in IgG4 scaffold (HSEGTFTSDVSSYLEGQAAKEFIAWLVKGRG; also: in IgG4 mimetibody scaffold)”, the “cAMP levels in Rinm cells relative to wt GLP-1 MMB in IgG4 scaffold” value with GLP-1R was “significantly higher level than wt GLP-1 MMB in IgG4 scaffold”.
